Assay results from patent US20240173333A1, “Treating Alagille Syndrome (ALGS)” (priority 2022, published 2024).
≈ marks a conversion by molar mass, not a printed value.

How the values were obtained:
[1] = tested on: patients with Alagille syndrome (ALGS); test: ASSERT: hepatic parameters, biochemical markers and markers of bile acid synthesis; format: in vivo, human
Excerpt: […] Additional secondary efficacy endpoints were as follows: • Change from baseline in pruritus to Month 6 (Weeks 21 to 24) as measured by the Albireo PRO instrument. • Percentage of patients achieving a clinically meaningful decrease in pruritus (pruritis responders) as measured by the ObsRO/PRO instruments. • Change from baseline through Week 24 in patient reported and observer reported itching and scratching severity scores, respectively, for the morning assessment and for the evening assessment; sleep parameters as measured with the Albireo ObsRO/PRO instruments (e.g., tiredness and number of awakenings); and PedsQL subdomain scores. • Assessment of Global Symptom Relief to from baseline to Weeks 4, 12, and 24 as measured by patient, caregiver, and clinician Global Impression of Symptoms GIS (PGIS, CaGIS, CGIS) items. • Change from baseline to Week 24 in xanthomatosis as assessed by the Clinician Xanthoma Scale; serum bile acid levels; serum ALT concentration; and serum AST concentration; gamma-glutamyl transferase concentration; total bilirubin concentration. • Change from baseline in biochemical markers and measures of bile acid synthesis (autotaxin, p-C4, only in patients >10 kg); and total cholesterol concentration.
Biochemical Markers and PK Samples. Blood samples for analysis of clinical chemistry were drawn during Screening Visits 1 and 2, as well as at randomization (Study Day 1), Week 4 to 24/EOT, and Safety Follow-up visits. As outlined in Table 1, total bilirubin, AST, ALT, and gamma glutamyl transferase assessments were included as part of the routine laboratory parameters. Blood samples for autotaxin and p-C4 were drawn at randomization (Study Day 1), Week 12, and Week 24/EOT, only for children with body weight >10 kg. Blood for odevixibat PK assessment was drawn at Week 4, Week 20, and EOT (only for children with body weight >10 kg). Samples were processed and transported to a laboratory per instructions in the laboratory manual.

[2] = tested on: patients with Alagille syndrome (ALGS); test: ASSERT-EXT open-label extension: ObsRO pruritus response; format: in vivo, human; conditions: placebo-odevixibat group; weeks 9-12 of ASSERT-EXT; 120 μg/kg/day
Procedure: ASSERT-EXT is a Phase 3, multi-center, open-label extension study designed to evaluate the long-term safety and efficacy of 120 μg/kg/day odevixibat in relieving pruritus in patients with ALGS. Patients who participated in the ASSERT trial (see Example 1) and met eligibility criteria for the ASSERT trial were eligible to participate. The duration of the treatment period is 72 weeks, followed by a 4-week Safety Follow-up Period. Clinic visits occur every 4 to 12 weeks. […]
Day 1 coincided with Week 24 in the ASSERT trial; however, if this was not possible due to logistic issues, patients enrolled in the ASSERT-EXT trial within 28 days of completion of the ASSERT trial. […] Two groups were analyzed up to an interim cut-off date of Sep. […]
Outcomes evaluated include pruritus, serum BAs, sleep, and treatment-emergent adverse events (TEAEs). The Primary Efficacy Endpoint is the change from baseline in scratching through Week 72 as measured by the Albireo ObsRO caregiver instrument.
Itching, Scratching, and Sleep Score. Itching, observed scratching, and sleep disturbance were recorded twice each day via eDiary. […] When logistically feasible, the same parent or caregiver recorded in the eDiary, and changes to the parent or caregiver who is performing the recording should be minimized. […] The caregiver recording in the eDiary was recorded. […]

[3] = Solubility in water; format: physicochemical; conditions: pH 7, 37° C.
Excerpt: It is desirable that the use of organic solvents in the preparation of the formulation is avoided. In some embodiments, water is used as the solvent for the preparation of the formulation. […] Because of this low solubility in water, aqueous suspensions of odevixibat can contain larger agglomerates of odevixibat, which may lead to an uneven distribution of the active pharmaceutical ingredient on the cores, i.e., the cores may contain different amounts of odevixibat, which in turn impacts dose uniformity. Accordingly, in some embodiments, the aqueous suspension of odevixibat is homogeneous. In some embodiments, a homogeneous aqueous suspension of odevixibat is sprayed onto the cores.

[4] = baseline, before treatment, n=35
[5] = baseline, before treatment, patients >10 kg
[6] = week 24, 120 μg/kg/day, patients >10 kg

CCCCC1(CCCC)CN(c2ccccc2)c2cc(SC)c(OCC(=O)N[C@@H](C(=O)N[C@@H](CC)C(=O)O)c3ccc(O)cc3)cc2S(=O)(=O)N1 [odevixibat, 1,1-dioxo-3,3-dibutyl-5-phenyl-7-methylthio-8-(N-{(R)-α-[N-((S)-1-carboxypropyl)carbamoyl]-4-hydroxybenzyl}carbamoylmethoxy)-2,3,4,5-tetrahydro-1,2,5-benzothiadiazepine]
GGT, LS mean (SE) change from baseline to week 24 ([1]; 120 μg/kg/day, n=35): 100 (44) U/L
Serum ALT, LS mean (SE) change from baseline to week 24 ([1]; 120 μg/kg/day, n=35): 66 (14) U/L
Serum AST, LS mean (SE) change from baseline to week 24 ([1]; 120 μg/kg/day, n=35): 54 (15) U/L
Total bilirubin, LS mean (SE) change from baseline to week 24 ([1]; 120 μg/kg/day, n=35): 1 (3) μmol/L
Total cholesterol, LS mean (SE) change from baseline to week 24 ([1]; 120 μg/kg/day, n=35): −1 (1) mmol/L
Autotaxin, Mean (SD) change from baseline to week 24 ([1]; 120 μg/kg/day, patients >10 kg): −414 (439) ng/mL
C4, Mean (SD) change from baseline to week 24 ([1]; 120 μg/kg/day, patients >10 kg): 12 (12) ng/mL
GGT, Mean (SD) at baseline [1, 4]: 366 (211) U/L
Serum ALT, Mean (SD) at baseline [1, 4]: 186 (83) U/L
Serum AST, Mean (SD) at baseline [1, 4]: 170 (81) U/L
Total bilirubin, Mean (SD) at baseline [1, 4]: 52 (43) μmol/L
Total cholesterol, Mean (SD) at baseline [1, 4]: 8 (2) mmol/L
Autotaxin, Mean (SD) at baseline [1, 5]: 1846 (540) ng/mL
C4, Mean (SD) at baseline [1, 5]: 6 (6) ng/mL
patients with post-treatment changes in Total Bilirubin (≥3×BL) concurrently with ALT (≥2×BL) (Hy's Law / drug induced liver injury cases) ([1]; post-baseline, 24 weeks): No patient
GGT, Mean (SD) at week 24 ([1]; week 24, 120 μg/kg/day, n=35): 460 (270) U/L
Serum ALT, Mean (SD) at week 24 ([1]; week 24, 120 μg/kg/day, n=35): 245 (121) U/L
Serum AST, Mean (SD) at week 24 ([1]; week 24, 120 μg/kg/day, n=35): 217 (131) U/L
Total bilirubin, Mean (SD) at week 24 ([1]; week 24, 120 μg/kg/day, n=35): 53 (42) μmol/L
Total cholesterol, Mean (SD) at week 24 ([1]; week 24, 120 μg/kg/day, n=35): 7 (2) mmol/L
Autotaxin, Mean (SD) at week 24 [1, 6]: 1452 (440) ng/mL
C4, Mean (SD) at week 24 [1, 6]: 19 (13) ng/mL
patients achieving a pruritus reduction ≥1-point from baseline [2]: 70%
solubility [3]: ~30 µg/mL (≈ 40.5 µM)
